In one data set the test system is Pseudomonas aeruginosa. Put plainly: Ratio of MBC against Pseudomonas aeruginosa ATCC 27853 after 50 passages to MBC against Pseudomonas aeruginosa ATCC 27853. It counts as functional.
A further data set deals with Trypsin (Homo sapiens, UniProt P07477+P07478+P35030). Put plainly: Stability of the compound assessed as trypsin (unknown origin)-mediated compound hydrolysis after 1 hrs by SDS-PAGE analysis. It counts as ADME, protein assay.
In another data set the target is Chymotrypsin (Homo sapiens, UniProt Q99895+P17538+P40313+Q6GPI1). Put plainly: Stability of the compound assessed as chymotrypsin (unknown origin)-mediated compound hydrolysis after 1 hrs by SDS-PAGE analysis. It counts as ADME, protein assay.
Data set [1] in a line: Stability of the compound assessed as pepsin (unknown origin)-mediated compound hydrolysis after 1 hrs by SDS-PAGE analysis. It counts as ADME. The following applies: human.
Data set [2] in a line: Stability of the compound assessed as Tritirachium album proteinase K-mediated compound hydrolysis after 1 hrs by SDS-PAGE analysis. In kind it is ADME. To be noted: parengyodontium album.
The subject of data set [3] is Escherichia coli. Kind of data set: Bactericidal activity against Escherichia coli ATCC 25922 incubated for 4 hrs followed by culture spread on agar plates and cultured overnight in presence of 0.125 to 4 mg/ml proteinase K. It counts as functional, organism-based.
The test system of data set [4] is Escherichia coli. Kind of data set: Bactericidal activity against Escherichia coli ATCC 25922 assessed as elimination of bacterial cells at MBC after 60 mins by time kill assay. In kind it is functional.
The nature of data set [5]: Toxicity in ICR mouse assessed as effect on AST levels in serum at 40 mg/kg, ip administered every 12 hrs for 3 days measured at 72 hrs post dose. In kind it is organism-based. To be noted: in vivo.
Data set [6] in a line: Toxicity in ICR mouse assessed as effect on ALT levels in serum at 40 mg/kg, ip administered every 12 hrs for 3 days measured at 72 hrs post dose. In kind it is organism-based. The following applies: in vivo.
A short description of data set [7]: Renal toxicity in ICR mouse assessed as effect on BUN levels in serum at 40 mg/kg, ip administered every 12 hrs for 3 days measured at 72 hrs post dose. In kind it is organism-based. To be noted: in vivo.
A short description of data set [8]: Toxicity in ICR mouse assessed as effect on AST levels in serum at 20 mg/kg, ip administered every 12 hrs for 3 days measured at 72 hrs post dose. In kind it is organism-based. To be noted: in vivo.
Data set [9] is described as follows: Toxicity in ICR mouse assessed as effect on ALT levels in serum at 20 mg/kg, ip administered every 12 hrs for 3 days measured at 72 hrs post dose. In kind it is organism-based. To be noted: in vivo.
Data set [10] is described as follows: Renal toxicity in ICR mouse assessed as effect on BUN levels in serum at 20 mg/kg, ip administered every 12 hrs for 3 days measured at 72 hrs post dose. In kind it is organism-based. To be noted: in vivo.
The nature of data set [11]: Stability of the compound assessed as pepsin (unknown origin)-mediated compound hydrolysis by LC-MS analysis. It counts as ADME. To be noted: human.
The nature of data set [12]: Stability of the compound assessed as Tritirachium album proteinase K-mediated compound hydrolysis by LC-MS analysis. In kind it is ADME. The following applies: parengyodontium album.
In data set [13] the test system is Escherichia coli. Kind of data set: Induction of cell membrane disruption in Escherichia coli ATCC 25922 at MBC after 30 mins using FITC-labelled peptides by propidium iodide-staining based confocal fluorescent microscopy. It counts as organism-based.
The subject of data set [14] is Lipopolysaccharide (LPS). Kind of data set: Displacement of BODIPY-TR-cadaverine from Escherichia coli O111:B4 LPS at 4 uM after 1 hr by spectrofluorophotometric method relative to control.
Data set [15] concerns Lipopolysaccharide (LPS). Put plainly: Displacement of BODIPY-TR-cadaverine from Escherichia coli O111:B4 LPS after 1 hr by spectrofluorophotometric method.
Data set [16] concerns Lipopolysaccharide (LPS). Put plainly: Binding affinity to Escherichia coli O111:B4 LPS by SPR method. For orientation: SPR reads the build-up and loss of mass on a sensor chip optically.
Data set [17] has as its system Escherichia coli. Kind of data set: Bactericidal activity against Escherichia coli O111:B4 assessed as reduction in colony forming units at MBC after 90 mins in presence of LPS. It counts as functional, organism-based.
Data set [18] can be described thus: Cytotoxicity against mouse RAW264.7 cells assessed as survival rate at 16 uM after 18 to 24 hrs by MTT assay relative to control. In kind it is cell-based. The following applies: read-out: Activity.
The test system of a further data set is RAW264.7. Kind of data set: Inhibition of LPS-stimulated TNFalpha production in mouse RAW264.7 cells at 16 uM after 20 hrs by […]. It counts as functional, cell-based. For orientation: The Griess reaction detects nitrite, a stable product of nitric oxide.
Data set [19] deals with Escherichia coli. Kind of data set: Induction of outer membrane permeabilization in Escherichia coli ATCC 25922 at 1 to 64 uM by NPN-dye based assay. It counts as organism-based.
The test system of data set [20] is Lipid bilayer. Kind of data set: Induction of membrane disruption in LPS/PC/PG unilamellar vesicles assessed as calcein-entrapped liposome leakage at 2 uM after 15 mins by fluorescence assay.
The test system of data set [21] is Lipid bilayer. Put plainly: Induction of membrane disruption in LPS/POPC/POPG unilamellar vesicles assessed as calcein-entrapped liposome leakage after 15 mins by fluorescence assay.
The test system of data set [22] is Escherichia coli. Kind of data set: Induction of cytoplasmic membrane depolarization in Escherichia coli ATCC 25922 assessed as induction cytoplasmic ONPG release at 4 uM up to 120 mins by DiSC3-5 dye-based fluorescence spectrophotometric method. In kind it is functional, organism-based.
In data set [23] the test system is Escherichia coli. Kind of data set: Induction of membrane disruption in Escherichia coli ATCC 25922 assessed as pore formation at MBC after 1 hr by SEM analysis. In kind it is functional, organism-based.
Data set [24] concerns Escherichia coli. Kind of data set: Induction of membrane disruption in Escherichia coli ATCC 25922 assessed as membrane content leakage at MBC after 1 hr by SEM analysis. In kind it is functional, organism-based.
For data set [25], the system named is Escherichia coli. Put plainly: Induction of membrane disruption in Escherichia coli ATCC 25922 assessed as formation of broken membrane fragments at MBC after 1 hr by SEM analysis. In kind it is functional, organism-based.
Data set [26] concerns Escherichia coli. Put plainly: Induction of membrane disruption in Escherichia coli ATCC 25922 assessed as pore formation at MBC after 1 hr by TEM analysis. It counts as functional, organism-based.
Data set [27] relates to Escherichia coli. Kind of data set: Induction of membrane disruption in Escherichia coli ATCC 25922 assessed as outer membrane separation at MBC after 1 hr by TEM analysis. In kind it is functional, organism-based.
Data set [28] relates to Escherichia coli. Kind of data set: Induction of membrane disruption in Escherichia coli ATCC 25922 assessed as sparse cytoplasmic distribution at MBC after 1 hr by TEM analysis. In kind it is functional, organism-based.
Data set [29] is described as follows: Drug localisation at cell membrane of Escherichia coli ATCC 25922 at MBC after 30 mins using FITC-labelled peptides by propidium iodide-staining based confocal fluorescent microscopy. It counts as ADME, cell membranes. The following applies: 0.5 h.
Data set [30] relates to Lipid bilayer. Put plainly: Induction of membrane disruption in POPC/POPG unilamellar vesicles assessed as calcein-entrapped liposome leakage at 1 to 64 uM after 15 mins by fluorescence assay.
Data set [31] has as its system Escherichia coli. Put plainly: Bactericidal activity against Escherichia coli ATCC 25922 using FITC-labelled peptide incubated for 4 hrs followed by culture spread on agar plates and cultured overnight. In kind it is functional. To be noted: ATCC 25922, 4 h.
The test system of data set [32] is Escherichia coli. Put plainly: Bactericidal activity against Escherichia coli ATCC 25922 assessed as elimination of bacterial cells at MBC after 5 mins by time kill assay. It counts as functional.
For another data set, the system named is HEK-293T. Put plainly: Cytotoxicity against HEK293T cells assessed as cell death at 32 uM after 18 to 24 hrs by MTT assay relative to control. It counts as cell-based. To be noted: human. (Tetrazolium dyes change colour on reduction, which living cells bring about.)
Data set [33] in a line: Cytotoxicity against IPECJ2 cells assessed as cell death at 16 uM after 18 to 24 hrs by MTT assay relative to control. In kind it is cell-based, Sus scrofa. To be noted: pig.
Data set [34] can be described thus: Cytotoxicity against mouse RAW264.7 cells assessed as cell viability at 4 uM after 18 to 24 hrs by MTT assay relative to control. It counts as cell-based. To be noted: read-out: Activity.
A short description of data set [35]: Hemolytic activity against human RBC at 128 uM after 1 hr. It counts as ADME, cell-based, Erythrocyte. The following applies: red blood cells (erythrocytes), read-out: Activity.

The source of these data is ChEMBL document CHEMBL4316596, “Antimicrobial Peptides with High Proteolytic Resistance for Combating Gram-Negative Bacteria” (J Med Chem, 2019).

The source made the active and inactive calls.

A word on the MBC: it is the smallest concentration meeting the test's criterion for killing. Low readings indicate more potent killing, high ones less potent killing.

Turning to `CC[C@H](C)[C@H](NC(=O)CN)C(=O)NCC(=O)N[C@@H](C)C(=O)N[C@H](C(=O)N[C@@H](CC(C)C)C(=O)N[C@@H](CCCCN)C(=O)N[C@H](C(=O)N[C@@H](CC(C)C)C(=O)N[C@H](C(=O)N[C@H](C(=O)NCC(=O)N[C@@H](CC(C)C)C(=O)N1CCC[C@H]1C(=O)N[C@@H](C)C(=O)N[C@@H](CC(C)C)C(=O)N[C@H](C(=O)N[C@@H](CO)C(=O)N[C@@H](Cc1c[nH]c2ccccc12)C(=O)N[C@H](C(=O)N[C@@H](CCCCN)C(=O)N[C@@H](CCCNC(=N)N)C(=O)N[C@@H](CCCCN)C(=O)N[C@@H](CCCNC(=N)N)C(=O)N[C@@H](CCC(N)=O)C(=O)N[C@@H](CCC(N)=O)C(N)=O)[C@@H](C)CC)[C@@H](C)CC)[C@@H](C)O)[C@@H](C)O)C(C)C)C(C)C` [MELITTIN], in the data set with Pseudomonas aeruginosa, the Ratio was determined as 256. In addition, the Stability result (on Trypsin; at Chymotrypsin; in data set [1]; in data set [2]) was “Unstable” throughout.

Regarding H-IKPIIKPIIKPIIKPIIKPIIKPIIKPI-NH2, in the data set on Escherichia coli [3], the outcome was Active.

Regarding H-IRPIIRPIIRPIIRPIIRPIIRPIIRPI-NH2, the Activity in the data set on Escherichia coli [4] is recorded as above 99.99%; in data set [5], “Non-Toxic”; in data set [6] it was “Non-Toxic”; in [7], “Non-Toxic”; in [8] it was “Toxic”; in data set [9], “Toxic”. Further, the Activity result in data set [10] is “Toxic”; in the data set with Lipopolysaccharide (LPS) [14] it was 70%; in the data set on Lipopolysaccharide (LPS) [15], “Dose-dependent effect”; in the data set on Lipopolysaccharide (LPS) [16] it was “Dose-dependent effect”; in the data set with Lipid bilayer [20] it was 30%; in the data set on Lipid bilayer [21], “Dose-dependent effect”. Besides, the result with Escherichia coli [3], in the data set on Escherichia coli [13], with Escherichia coli [19], in the data set with Escherichia coli [22], with Escherichia coli [23] and with Escherichia coli [24] was Active. The outcome in the data set on Escherichia coli [25], with Escherichia coli [26], in the data set with Escherichia coli [27], in the data set on Escherichia coli [28] and in the data set with Lipid bilayer [30] was Active. The Stability result in data set [11] and in data set [12] was “Stable” in each case. For the same molecule, the result in the data set with Escherichia coli [17] was inactive. The viability at 16 µM in [18] was above 80%. Also, in the data set on RAW264.7, the inhibition entry is “Active”. In addition, the Drug uptake result in data set [29] is recorded as “Active”. Moreover, in the data set on Escherichia coli [31], the MBC is 4 µM.

For H-LRPLLRPLLRPLLRPLLRPLLRPLLRPL-NH2, the Activity is recorded as above 99.99% in the data set with Escherichia coli [32], 80% in the data set on HEK-293T and 80% in data set [33]. Besides, the viability at 4 µM in [34] turned out to be 7.52%. In addition, the hemolysis at 1 h, 128 µM in data set [35] is above 40%.
